From paper PMC6422312 (Molecular pharmacology, 2010)
Entries after “also recorded” stand apart in the source; their conditions may differ.

Columns and labels:
[1] = target: T1, P-gp Q132A mutant (Homo sapiens, UniProt P08183, Q132A); test: cell-based
[2] = target: T2, P-gp Q132R mutant (Homo sapiens, UniProt P08183, Q132R); test: cell-based
[3] = target: T3, P-gp Q773A mutant (Homo sapiens, UniProt P08183, Q773A); test: cell-based
[4] = target: wild-type P-gp (Homo sapiens, UniProt P08183); test: cell-based
[5] = target: T1, P-gp Q132A mutant; conditions: alanine mutants (Q132A, Q773A) vs wild type, rhodamine123 efflux inhibition
[6] = target: T4, P-gp Q773R mutant (Homo sapiens, UniProt P08183, Q773R); test: cell-based; conditions: IC50 for rhodamine123 efflux inhibition, HEK-293/EBNA cells
T4 sequence (P08183 whole entry Q773R): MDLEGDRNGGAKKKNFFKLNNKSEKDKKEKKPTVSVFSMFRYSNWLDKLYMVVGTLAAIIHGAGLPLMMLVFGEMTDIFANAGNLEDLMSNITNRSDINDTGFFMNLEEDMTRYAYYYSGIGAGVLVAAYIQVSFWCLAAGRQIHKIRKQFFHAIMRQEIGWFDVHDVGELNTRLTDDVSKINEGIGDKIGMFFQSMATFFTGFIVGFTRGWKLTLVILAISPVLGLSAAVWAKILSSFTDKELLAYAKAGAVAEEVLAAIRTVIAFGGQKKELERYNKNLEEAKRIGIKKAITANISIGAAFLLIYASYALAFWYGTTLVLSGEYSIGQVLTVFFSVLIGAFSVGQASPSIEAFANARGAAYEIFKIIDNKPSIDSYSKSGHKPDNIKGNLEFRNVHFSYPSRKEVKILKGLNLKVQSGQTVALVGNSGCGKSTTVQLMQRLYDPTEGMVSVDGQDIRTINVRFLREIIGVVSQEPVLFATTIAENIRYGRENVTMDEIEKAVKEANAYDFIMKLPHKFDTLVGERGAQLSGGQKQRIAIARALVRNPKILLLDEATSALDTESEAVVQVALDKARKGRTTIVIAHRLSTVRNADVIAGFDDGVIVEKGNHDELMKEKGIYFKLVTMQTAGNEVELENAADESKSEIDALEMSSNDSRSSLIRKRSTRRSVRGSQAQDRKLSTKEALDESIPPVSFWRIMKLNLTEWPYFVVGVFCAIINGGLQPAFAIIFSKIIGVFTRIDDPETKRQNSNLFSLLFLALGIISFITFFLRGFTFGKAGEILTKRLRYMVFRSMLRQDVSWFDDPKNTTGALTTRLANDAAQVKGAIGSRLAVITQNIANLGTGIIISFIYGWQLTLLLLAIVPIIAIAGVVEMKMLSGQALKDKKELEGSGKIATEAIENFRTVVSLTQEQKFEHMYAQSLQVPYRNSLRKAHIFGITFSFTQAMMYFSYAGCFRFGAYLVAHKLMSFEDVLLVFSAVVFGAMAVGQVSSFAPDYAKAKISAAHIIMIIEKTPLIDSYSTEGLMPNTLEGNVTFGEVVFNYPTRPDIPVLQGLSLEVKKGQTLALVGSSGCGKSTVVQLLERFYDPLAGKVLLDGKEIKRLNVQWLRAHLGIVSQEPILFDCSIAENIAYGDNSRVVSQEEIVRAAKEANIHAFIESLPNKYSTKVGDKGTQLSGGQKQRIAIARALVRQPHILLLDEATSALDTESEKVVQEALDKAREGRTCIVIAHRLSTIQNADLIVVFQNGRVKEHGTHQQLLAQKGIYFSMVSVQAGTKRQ

[7] = target: P-gp Q132A/Q773A mutant (Homo sapiens, UniProt P08183, Q132A/Q773A); test: cell-based
[8] = target: P-gp Q132R/Q773R double mutant (Homo sapiens, UniProt P08183, Q132R/Q773R); test: Rhodamine123 efflux; format: cell-based; conditions: protein expressed at the cell surface
[9] = target: T1, P-gp Q132A mutant; test: Rhodamine123 efflux; format: cell-based; conditions: Q132A vs wild type
[10] = target: T4, P-gp Q773R mutant; test: Rhodamine123 efflux; format: cell-based; conditions: slope of first-order rate constant vs P-gp surface expression (MRK16)
[11] = target: T2, P-gp Q132R mutant; test: Rhodamine123 efflux; format: cell-based; conditions: slope of first-order rate constant vs P-gp surface expression (MRK16)
[12] = target: T3, P-gp Q773A mutant; test: Rhodamine123 efflux; format: cell-based; conditions: Q773A vs wild type
[13] = target: T2, P-gp Q132R mutant; conditions: rhodamine123 efflux inhibition

T1 sequence (P08183 whole entry Q132A): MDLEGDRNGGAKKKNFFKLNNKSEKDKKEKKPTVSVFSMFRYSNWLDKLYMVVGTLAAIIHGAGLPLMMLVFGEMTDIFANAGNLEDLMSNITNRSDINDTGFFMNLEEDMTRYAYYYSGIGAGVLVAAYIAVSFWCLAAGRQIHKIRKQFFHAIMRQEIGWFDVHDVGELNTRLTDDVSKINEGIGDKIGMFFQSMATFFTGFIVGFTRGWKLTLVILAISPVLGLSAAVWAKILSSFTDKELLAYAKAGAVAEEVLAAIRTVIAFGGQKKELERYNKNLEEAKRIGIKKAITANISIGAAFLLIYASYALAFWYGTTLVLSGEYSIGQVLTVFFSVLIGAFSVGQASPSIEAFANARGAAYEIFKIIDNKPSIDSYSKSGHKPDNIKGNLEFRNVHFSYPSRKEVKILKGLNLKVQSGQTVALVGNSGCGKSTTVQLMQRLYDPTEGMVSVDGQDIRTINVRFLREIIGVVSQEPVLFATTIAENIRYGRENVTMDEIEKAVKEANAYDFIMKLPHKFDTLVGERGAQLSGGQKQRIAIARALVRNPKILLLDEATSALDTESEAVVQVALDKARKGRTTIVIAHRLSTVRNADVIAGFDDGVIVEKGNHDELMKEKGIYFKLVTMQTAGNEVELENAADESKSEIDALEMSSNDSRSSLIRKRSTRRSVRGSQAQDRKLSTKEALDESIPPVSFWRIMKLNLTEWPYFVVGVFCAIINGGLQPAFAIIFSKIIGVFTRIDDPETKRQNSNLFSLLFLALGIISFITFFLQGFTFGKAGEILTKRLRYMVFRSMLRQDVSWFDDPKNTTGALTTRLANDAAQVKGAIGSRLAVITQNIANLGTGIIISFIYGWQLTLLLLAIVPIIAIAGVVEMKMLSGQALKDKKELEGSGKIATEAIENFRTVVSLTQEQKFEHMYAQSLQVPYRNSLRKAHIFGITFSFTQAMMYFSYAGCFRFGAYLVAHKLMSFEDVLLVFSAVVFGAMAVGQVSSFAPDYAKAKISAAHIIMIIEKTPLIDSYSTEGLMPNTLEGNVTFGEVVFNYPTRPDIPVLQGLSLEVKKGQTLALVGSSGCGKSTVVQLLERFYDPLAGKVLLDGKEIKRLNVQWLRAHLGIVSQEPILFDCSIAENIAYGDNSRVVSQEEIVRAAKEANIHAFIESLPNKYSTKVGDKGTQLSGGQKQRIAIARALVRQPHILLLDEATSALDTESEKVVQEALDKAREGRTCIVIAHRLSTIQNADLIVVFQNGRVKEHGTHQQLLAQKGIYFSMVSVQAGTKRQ
T3 sequence (P08183 whole entry Q773A): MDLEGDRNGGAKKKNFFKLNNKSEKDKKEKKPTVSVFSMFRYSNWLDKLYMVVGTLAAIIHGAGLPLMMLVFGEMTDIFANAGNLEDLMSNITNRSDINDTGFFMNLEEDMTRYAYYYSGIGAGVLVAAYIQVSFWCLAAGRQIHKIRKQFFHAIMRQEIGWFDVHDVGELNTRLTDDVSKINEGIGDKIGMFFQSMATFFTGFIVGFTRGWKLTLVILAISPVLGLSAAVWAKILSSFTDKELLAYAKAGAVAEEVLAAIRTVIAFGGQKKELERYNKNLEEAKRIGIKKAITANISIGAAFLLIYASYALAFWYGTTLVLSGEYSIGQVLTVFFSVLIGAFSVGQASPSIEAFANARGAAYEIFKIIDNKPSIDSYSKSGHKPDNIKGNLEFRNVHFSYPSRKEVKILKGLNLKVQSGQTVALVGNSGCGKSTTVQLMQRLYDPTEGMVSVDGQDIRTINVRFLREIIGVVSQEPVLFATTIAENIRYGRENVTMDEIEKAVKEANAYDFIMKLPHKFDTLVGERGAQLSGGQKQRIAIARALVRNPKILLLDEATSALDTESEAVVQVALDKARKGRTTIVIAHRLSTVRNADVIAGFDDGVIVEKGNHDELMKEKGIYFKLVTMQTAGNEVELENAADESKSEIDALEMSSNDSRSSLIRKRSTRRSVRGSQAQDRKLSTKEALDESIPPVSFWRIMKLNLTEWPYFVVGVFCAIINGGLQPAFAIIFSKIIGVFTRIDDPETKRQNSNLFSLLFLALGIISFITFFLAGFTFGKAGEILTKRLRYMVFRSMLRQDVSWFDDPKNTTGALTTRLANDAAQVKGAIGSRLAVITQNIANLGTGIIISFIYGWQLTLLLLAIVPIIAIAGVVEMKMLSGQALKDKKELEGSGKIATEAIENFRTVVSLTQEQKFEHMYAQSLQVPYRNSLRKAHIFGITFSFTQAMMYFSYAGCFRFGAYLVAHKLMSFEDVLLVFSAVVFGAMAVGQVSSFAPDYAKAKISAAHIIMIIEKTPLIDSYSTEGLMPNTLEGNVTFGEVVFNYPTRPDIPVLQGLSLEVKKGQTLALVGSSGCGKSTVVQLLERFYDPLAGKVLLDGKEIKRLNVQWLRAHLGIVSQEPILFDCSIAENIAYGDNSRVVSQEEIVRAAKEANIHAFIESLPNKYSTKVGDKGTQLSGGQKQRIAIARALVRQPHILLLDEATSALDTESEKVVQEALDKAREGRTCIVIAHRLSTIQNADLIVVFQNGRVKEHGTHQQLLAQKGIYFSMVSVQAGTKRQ
T2 sequence (P08183 whole entry Q132R): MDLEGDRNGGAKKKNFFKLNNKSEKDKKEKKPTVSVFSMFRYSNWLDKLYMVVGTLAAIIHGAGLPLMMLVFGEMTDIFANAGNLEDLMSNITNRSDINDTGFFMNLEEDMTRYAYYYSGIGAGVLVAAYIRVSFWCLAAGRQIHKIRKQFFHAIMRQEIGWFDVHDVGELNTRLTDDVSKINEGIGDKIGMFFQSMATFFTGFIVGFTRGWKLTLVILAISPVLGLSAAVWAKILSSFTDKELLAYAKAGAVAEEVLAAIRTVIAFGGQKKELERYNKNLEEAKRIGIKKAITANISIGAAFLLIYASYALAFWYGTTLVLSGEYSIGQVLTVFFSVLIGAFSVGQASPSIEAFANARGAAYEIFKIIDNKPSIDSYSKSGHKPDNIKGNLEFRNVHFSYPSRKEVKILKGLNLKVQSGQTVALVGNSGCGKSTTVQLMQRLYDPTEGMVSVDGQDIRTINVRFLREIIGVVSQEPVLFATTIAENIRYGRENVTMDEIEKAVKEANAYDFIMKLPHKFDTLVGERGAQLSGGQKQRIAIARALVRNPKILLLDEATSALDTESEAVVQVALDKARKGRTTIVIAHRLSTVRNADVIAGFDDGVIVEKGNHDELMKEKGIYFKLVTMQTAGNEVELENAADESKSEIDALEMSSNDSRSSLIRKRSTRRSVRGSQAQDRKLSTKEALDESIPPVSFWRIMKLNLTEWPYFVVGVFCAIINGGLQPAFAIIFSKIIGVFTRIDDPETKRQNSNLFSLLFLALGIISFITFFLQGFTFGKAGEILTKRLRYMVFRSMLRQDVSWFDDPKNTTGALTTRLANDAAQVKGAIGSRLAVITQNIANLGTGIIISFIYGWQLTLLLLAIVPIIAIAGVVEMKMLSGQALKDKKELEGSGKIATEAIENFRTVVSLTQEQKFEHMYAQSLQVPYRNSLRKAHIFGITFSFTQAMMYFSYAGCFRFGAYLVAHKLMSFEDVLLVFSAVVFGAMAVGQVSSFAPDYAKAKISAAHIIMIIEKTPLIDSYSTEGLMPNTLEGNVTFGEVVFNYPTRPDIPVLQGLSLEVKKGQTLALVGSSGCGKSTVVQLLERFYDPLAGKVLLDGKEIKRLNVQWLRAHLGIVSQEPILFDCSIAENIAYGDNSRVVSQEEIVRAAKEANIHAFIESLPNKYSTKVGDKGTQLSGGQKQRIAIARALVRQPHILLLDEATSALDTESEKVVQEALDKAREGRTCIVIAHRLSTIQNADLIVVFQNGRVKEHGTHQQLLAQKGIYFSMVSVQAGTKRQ

IC50 [1] | IC50 [2] | IC50 [3] | IC50 [4] | Change of IC50 values on mutation of glutamine residues to alanine [5] | IC50 [6] | IC50 [7] | Rhodamine123 transport activity [8] | Rhodamine123 transport rate relative to wild-type [10] | Rhodamine123 transport rate relative to wild-type [11] | Fold difference in IC50 values between the two Arg mutants ([13]; Q132R vs Q773R) | Fold higher IC50 in Q132R than in wild-type P-gp ([13]; Q132R vs wild-type) | SMILES | Effect of mutation on rhodamine123 transport [9] | Effect of mutation on rhodamine123 transport [12]
2570 ± 690 nM | 2640 ± 590 nM | 2400 ± 1470 nM | 2600 ± 690 nM | did not change | 2090 ± 900 nM | 2870 ± 630 nM |  |  |  |  |  | CCCN(CC(O)COc1ccccc1C(=O)CCc1ccccc1)C(=O)c1ccccc1 (stereo not drawn) [GPV366, N-(2-hydroxy-3-(2-(3-phenylpropanoyl)phenoxy)-propyl)-N-propylbenzamide] |  | 
 |  |  |  |  |  |  | complete loss of transport activity | 24 ± 6 % of wild-type | 52 ± 13 % of wild-type |  |  | COC(=O)c1ccccc1-c1c2ccc(=N)cc-2oc2cc(N)ccc12 [rhodamine123] | did not affect; also recorded: comparable with wild-type | did not affect; also recorded: comparable with wild-type
100 ± 30 nM | 710 ± 460 nM | 110 ± 50 nM | 110 ± 60 nM | did not change | 20 ± 10 nM | 120 ± 10 nM |  |  |  | 36 fold | ~7 fold | O=C(CCc1ccccc1)c1ccccc1OCC(O)CN1CCN(c2ccc(F)cc2)CC1 (stereo not drawn) [GPV31, 1-(2-(3-(4-(4-fluorophenyl)piperazin-1-yl)-2-hydroxypropoxy)phenyl)-3-phenylpropan-1-one] |  | 
